Results taken from patent publication US20040106150A1, “Inverse labeling method for the rapid identification of marker/target proteins” (priority 2000, published 2004).
Entries after “also recorded” stand apart in the source; their conditions may differ.

Assays:
tumor tissue DU145 = experiment: Inverse labeling-MS phosphorylation analysis of tissue lysate of mouse tumor xenograft (tumor tissue DU145), in vivo study; design: Change (treated/control), % down: concentration or dose not given beside the values; details: for Change (treated/control) / Change (treated/control), % down: tumor tissue, 1 hour treatment
Description: The phosphoproteome mapping method is further tested/applied to an in vivo study of the Raf inhibitor, BPMI (1-hour treatment) in the analysis of tissue lysate of mouse tumor xenograft. […] Although the usual 1 mg of lysate is processed and IMAC enriched, considering the overwhelming blood protein contamination, the actual amount of tissue lysate proteins in the sample is a lot less. For that reason, only 0.05% β-casein is spiked into each tissue lysate sample as internal standard. The methyl esterification/IMAC procedure is successful in removing the blood contamination from the tissue samples. As shown in FIG. 15 (B), inverse labeling-MS analysis after IMAC enrichment clearly detects the down-regulation of Ser^25 phosphorylation of oncoprotein 18, confirming the finding of the cellular studies. Additional changes in phosphorylation are also detected which includes oncogene EMS1, mouse fetuin and Epithelial-cadherin (see Table 3).

HCT116 cells = experiment: Inverse labeling-MS phosphorylation analysis of HCT116 cell lysate treated with Raf inhibitor; assay type: cell-based, Human; details: for Change (treated/control) / Change (treated/control), % down: HCT116 cells, 20 μM, 1.5 hours vs DMSO control
Description: Human colorectal cell line HCT116 cells are grown in 6-well plates. Prior to harvesting, the cells are treated with 20 μM of the Raf inhibitor BPMI and DMSO control for 1.5 hours, respectively. Cells are then rinsed with PBS, and lysed for 5 mintues at 4° C. in Doriano lysis buffer with 100 μg/mL Perfabloc/2 μg/mL aprotinin/2 μg/mL leupeptin/1 mM NaVO4/10 mM NaF. The supernatant of the lysates are collected after centrifugation at 3,000 rpm for 5 minutes. The protein concentration is determined using Bio-Rad reagent, and the lysates are frozen at −80° C. prior to further processing and analysis.
One μL of RNase A (20 mg/mL, Sigma, St Louis, Mo.) and 1 μL of RNase T1 (10 units/mL, Invitrogen, Carlsbad, Calif.) are added to each 1 mL of lysates (total 3 mg of HCT116-DMSO control and 3 mg of HCT116-BPMI, respectively), and incubated at 37° C. for half an hour to degrade RNAs. Proteins are denatured using 6 M guanidine HCl, followed by reduction with 20 mM 1,4-dithio-DL-threitol (DTT) at 58° C. for 40 minutes and alkylation with 40 mM iodoacetamide at room temperature for 30 minutes in the dark. Each protein solution is transferred to a Slide-A-Lyzer ( 10,000 MW cutoff, Pierce, Rockford, Ill.) dialysis cassette and dialyzed against 2 to 0 M urea/50 mM ammonium bicarbonate to remove small molecule impurities and buffer exchange to 50 mM ammonium bicarbonate. Proteolysis is carried out using modified, sequencing grade trypsin (Promega, Madison, Wis.) at a 1:200 trypsin-to-protein ratio (wt:wt) in 50 mM ammonium bicarbonate at 37° C. overnight.
The peptide digests are filtered through Centricon Filters (10,000 MW cutoff, Millipore, Bedford, Mass.) to remove large molecule impurities including detergents. Flow-through (peptides) is collected. Solvent and ammonium bicarbonate are subsequently removed by SpeedVac drying.
d0- or d3-methanolic HCl (2 M) (methyl esterification reagent) is prepared by adding 160 μL of acetyl chloride to 1 mL of anhydrous d0-methyl alcohol or d3-methyl d-alcohol drop wise while stirring. After 10 minutes, 1 mL of the methyl esterification reagent is added to 1.5 mg of lyophilized peptide mixture. The reaction is performed in parallel to two identical aliquots for every sample, one using d0-reagent and one using d3-reagent, respectively. The reaction is allowed to proceed at room temperature for 30 minutes. The excess reagents are removed by SpeedVac drying. Subsequently the peptide mixtures are reconstituted with water. The inverse labeling is achieved by mixing d0-control with d3-treated (BPMI) and d3-control with d0-treated.
Enrichment of phosphopeptides is performed on a 2.1×30 mm IMAC column (POROS 20 MC, Applied Biosystems, Foster City, Calif.). Briefly, the column is washed with water, 100 mM EDTA in 1 M NaCl, followed by water and 1% acetic acid. The column is then activated with 100 mM FeCl3. The SpeedVac dried, 1 mg of the inversely-labeled methyl esterified peptide mixture (500 μg each form of d0 and d3) is dissolved in 1% acetic acid in 50% acetonitrile/water, and loaded onto iron-activated IMAC column. The unbound peptides are removed by washing with 1% acetic acid in 50% acetonitrile/water ([…]). The bound phosphopeptides are eluted with 2% ammonium hydroxide in 50% acetonitrile/water. Acetic acid is added to neutralize the eluent prior to SpeedVac drying. The phosphopeptide mixture is reconstituted with 0.1% formic acid and analyzed using capillary LC/MS, as described below.
An Ultimate capillary/nano HPLC system (LC Packings, San Francisco, Calif.) with a Swichos micro column-switching module (LC Packings, San Francisco, Calif.) is used for analysis. Separation is carried out on a 0.18×50 mm capillary column, packed with 3 μm C18 stationary phase of 300-Å pore size (PepMap, LC Packings, San Francisco, Calif.), operating at a flow rate of 2 μL/min. Mobile phase A consists of 0.1% (v/v) formic acid in water and mobile phase B of 0. 1% (v/v) formic acid in acetonitrile. […]

[1] = phosphopeptide ASGQAFELILpSPR, Oncoprotein 18
[2] = phosphopeptide LPpSSPVYEDAASFK, Oncogene EMS1
[3] = phosphopeptide MRDWVIPPIpSCPENEK, Epithelial-cadherin (mouse/human)
[4] = phosphopeptide SKESVPEFPLpSPPK, Oncoprotein 18
[5] = phosphopeptide VoxMHTQCHSTPDpSAEDVR, Mouse fetuin
[6] = phosphopeptide pTQTPPVpSPAPQPTEER, Oncogene EMS1
[7] = phosphopeptide IEpSPKLER, Heat-shock 110 kD protein
[8] = phosphopeptide RLpSPSApSPPR, Ser/Arg-related nuclear matrix protein

SMILES: CC(C)(C)c1ccc(Nc2ncc(Cc3ccncc3)c3ccccc23)cc1 [BPMI, 1-(4-t-butylanilino)-4-[(pyridin-4-yl)-methyl]-isoquinoline]
- Ser25 phosphorylation of oncoprotein 18 (OP18) (tumor tissue DU145; in vivo, tumor tissue DU145, 1-hour treatment): down-regulation
- Change (treated/control) (tumor tissue DU145; [1]): 0.4
- Change (treated/control), % down (tumor tissue DU145; [1]): 60%
- Change (treated/control) (tumor tissue DU145; [2]): 0.7
- Change (treated/control), % down (tumor tissue DU145; [2]): 30%
- Change (treated/control) (tumor tissue DU145; [3]): 0.5
- Change (treated/control), % down (tumor tissue DU145; [3]): 50%
- Change (treated/control) (tumor tissue DU145; [4]): 0.8
- Change (treated/control), % down (tumor tissue DU145; [4]): 20%
- Change (treated/control) (tumor tissue DU145; [5]): 0.6
- Change (treated/control), % down (tumor tissue DU145; [5]): 40%
- Change (treated/control) (tumor tissue DU145; [6]): 0.6
- Change (treated/control), % down (tumor tissue DU145; [6]): 40%
- OP18 (oncoprotein 18) Ser25 phosphorylation (HCT116 cells; HCT116 cell lysate, treated vs control): significantly down-regulated; also recorded: Down-regulation
- Change (treated/control) (HCT116 cells; [1]): 0.4
- Change (treated/control), % down (HCT116 cells; [1]): 60%
- Change (treated/control) (HCT116 cells; [7]): 0.7
- Change (treated/control), % down (HCT116 cells; [7]): 30%
- Change (treated/control) (HCT116 cells; [2]): 0.8
- Change (treated/control), % down (HCT116 cells; [2]): 20%
- Change (treated/control) (HCT116 cells; [8]): 0.7
- Change (treated/control), % down (HCT116 cells; [8]): 30%
- Change (treated/control) (HCT116 cells; [4]): 0.6
- Change (treated/control), % down (HCT116 cells; [4]): 40%
- Change (treated/control) (HCT116 cells; [6]): 0.8
- Change (treated/control), % down (HCT116 cells; [6]): 20%
